# Results reported in PubChem BioAssay AID1745844 (Carcinogenic Potency Database (CPDB), 2022).
# Several values for one entry are separate records, joined by “and”; a condition that tells them apart may be missing. Identical values can stand only once. Activity calls are given as the source filed them. The rule behind the calls is not given here. Numbered stars: 1 amine (or outer) side, 2 acyl side, 3 side chain; on linkers, the order of the positions; unused ones are H or OH. Bridge positions count the residues as written; N and C are the ends. Square brackets hold non-standard residues; d marks the D form. Peptide text beside a SMILES is read from it. I, II: the chains in the order shown. Actinocin(1to9) = Cc1c2oc3c(C)ccc(C(=O)[*:2])c3nc-2c(C(=O)[*:1])c(N)c1=O; NMeV = CN[C@H](C(=O)O)C(C)C; Sar = CNCC(=O)O
# System: rodent lifetime carcinogenesis bioassay, tumor incidence TD50
# Experiment: chronic cancer bioassays in animals – CPDB, compiled studies (AID 1745844)
# [1] = rat, strain Fischer 344, males, in feed, site: any site (literature study), lesion: several types, types named in the paper, dosed 103 weeks, study length 104 weeks
compound,measurement,setting,value
CCC(Br)(CC)C(=O)NC(N)=O,TD50,"mouse, strain B6C3F1, females, in feed, site: any site (literature study), lesion: several types, types named in the paper, dosed 78 weeks, study length 104 weeks",5320 mg/kg/day
same,TD50,"mouse, strain B6C3F1, females, in feed, site: liver, lesion: hepatocellular adenoma + hepatocellular carcinoma + neoplastic nodule, dosed 78 weeks, study length 104 weeks",1950 mg/kg/day
same,TD50,"mouse, strain B6C3F1, females, in feed, site: lung, lesion: alveolar/bronchiolar adenoma + alveolar/bronchiolar carcinoma, dosed 78 weeks, study length 104 weeks",553 mg/kg/day (inactive) and 553 mg/kg/day
same,carcinogen call,"mouse, strain B6C3F1, males, in feed, site: any site (literature study), lesion: several types, types named in the paper, dosed 78 weeks, study length 104 weeks",negative (inactive)
same,TD50,"mouse, strain B6C3F1, males, in feed, site: liver, lesion: hepatocellular adenoma + hepatocellular carcinoma + neoplastic nodule, dosed 78 weeks, study length 104 weeks",1580 mg/kg/day
same,carcinogen call,"rat, strain Fischer 344, females, in feed, site: any site (literature study), lesion: several types, types named in the paper, dosed 103 weeks, study length 104 weeks",negative (inactive)
same,TD50,[1],1030 mg/kg/day (inactive)
CCCCCC,TD50,"mouse, strain B6C3F1, females, inhaled, site: liver, lesion: hepatocellular carcinoma, dosed 105 weeks, study length 105 weeks",84800 mg/kg/day
same,TD50,"mouse, strain B6C3F1, females, inhaled, site: liver, lesion: several types, types named in the paper, dosed 105 weeks, study length 105 weeks",30300 mg/kg/day
same,TD50,"mouse, strain B6C3F1, females, inhaled, site: pituitary gland, lesion: adenoma, dosed 105 weeks, study length 105 weeks",10300 mg/kg/day
same,TD50,"mouse, strain B6C3F1, females, inhaled, site: pituitary gland, lesion: several types, types named in the paper, dosed 105 weeks, study length 105 weeks",9460 mg/kg/day
same,carcinogen call,"mouse, strain B6C3F1, males, inhaled, site: liver, lesion: several types, types named in the paper, dosed 105 weeks, study length 105 weeks",negative (inactive)
same,carcinogen call,"rat, strain Fischer 344, females, inhaled, site: nasal mucosa, lesion: one or several types, types not named, dosed 105 weeks, study length 105 weeks",negative (inactive)
same,carcinogen call,"rat, strain Fischer 344, males, inhaled, site: nasal mucosa, lesion: one or several types, types not named, dosed 105 weeks, study length 105 weeks",negative (inactive)
Nc1ccccc1-c1ccccc1,TD50,"mouse, strain B6C3F1, females, in feed, site: all sites, lesion: angiosarcoma + hemangioma, dosed 103 weeks, study length 104 weeks",1120 mg/kg/day
same,TD50,"mouse, strain B6C3F1, females, in feed, site: all sites, lesion: angiosarcoma, dosed 103 weeks, study length 104 weeks",1280 mg/kg/day
same,TD50,"mouse, strain B6C3F1, females, in feed, site: any site (literature study), lesion: several types, types named in the paper, dosed 103 weeks, study length 104 weeks",1880 mg/kg/day
same,TD50,"mouse, strain B6C3F1, females, in feed, site: liver, lesion: hepatocellular adenoma + hepatocellular carcinoma + neoplastic nodule, dosed 103 weeks, study length 104 weeks",2000 mg/kg/day
same,TD50,"mouse, strain B6C3F1, females, in feed, site: lung, lesion: alveolar/bronchiolar adenoma + alveolar/bronchiolar carcinoma, dosed 103 weeks, study length 104 weeks",26100 mg/kg/day
same,TD50,"mouse, strain B6C3F1, males, in feed, site: all sites, lesion: angiosarcoma + hemangioma + hemangiosarcoma, dosed 103 weeks, study length 104 weeks",1250 mg/kg/day
same,TD50,"mouse, strain B6C3F1, males, in feed, site: all sites, lesion: angiosarcoma + hemangiosarcoma, dosed 103 weeks, study length 104 weeks",1810 mg/kg/day
same,TD50,"mouse, strain B6C3F1, males, in feed, site: any site (literature study), lesion: several types, types named in the paper, dosed 103 weeks, study length 104 weeks",720 mg/kg/day
same,TD50,"mouse, strain B6C3F1, males, in feed, site: liver, lesion: hepatocellular adenoma + hepatocellular carcinoma + neoplastic nodule, dosed 103 weeks, study length 104 weeks",1700 mg/kg/day
same,carcinogen call,"rat, strain Fischer 344, females, in feed, site: any site (literature study), lesion: several types, types named in the paper, dosed 103 weeks, study length 105 weeks",negative (inactive)
same,TD50,"rat, strain Fischer 344, females, in feed, site: liver, lesion: hepatocellular adenoma + hepatocellular carcinoma + neoplastic nodule, dosed 103 weeks, study length 105 weeks",363 mg/kg/day
same,carcinogen call,[1],negative (inactive)
NNC=O,TD50,"mouse, strain Swiss albino, females, in drinking water, site: liver, lesion: several types, types named in the paper, dosed 83 weeks, study length 83 weeks",6860 mg/kg/day
same,TD50,"mouse, strain Swiss albino, females, in drinking water, site: lung, lesion: several types, types named in the paper, dosed 83 weeks, study length 83 weeks",36 mg/kg/day
same,TD50,"mouse, strain Swiss albino, males, in drinking water, site: liver, lesion: several types, types named in the paper, dosed 83 weeks, study length 83 weeks",1150 mg/kg/day
same,carcinogen call,"mouse, strain Swiss albino, males, in drinking water, site: lung, lesion: several types, types named in the paper, dosed 83 weeks, study length 83 weeks",positive
"CC[C@H](C)[C@@H]1NC(=O)[C@@H](NC(=O)c2c3nc4c(C(=O)N[C@@H]5C(=O)N[C@@H](C(C)C)C(=O)N6CCC[C@H]6C(=O)N(C)CC(=O)N(C)[C@@H](C(C)C)C(=O)O[C@@H]5C)ccc(C)c4oc-3c(C)c(=O)c2N)[C@@H](C)OC(=O)[C@H](C(C)C)N(C)C(=O)CN(C)C(=O)[C@@H]2CCCN2C1=O (I: TIP[Sar][NMeV] / II: TVP[Sar][NMeV]; ester I:1-I:C, II:1-II:C; linker I:N-II:N via Actinocin(1to9))",TD50,"rat, strain BR 46, males, i.v., site: any site (literature study), lesion: benign tumor, dosed 52 weeks, study length 104 weeks",2.23 mg/kg/day
same,TD50,"rat, strain BR 46, males, i.v., site: any site (literature study), lesion: malignant tumor, dosed 52 weeks, study length 104 weeks",10.8 mg/kg/day
same,TD50,"rat, strain BR 46, males, i.v., site: any site (literature study), lesion: several types, types named in the paper, dosed 52 weeks, study length 104 weeks",1.68 mg/kg/day
